# According to patent US6124323A, “4-substituted piperidine analogs and their use as subtype selective NMDA receptor antagonists” (Warner-Lambert Company, priority 1998, dated 2000):
# Counter-ions that a name gives are not always drawn. Like-named read-outs stand apart in the source and are kept apart here.
# Tests used:
# Assay type in all cases: cell-based
# [1] = target: T1, NMDA receptor subunits 1A/2C (Rattus norvegicus, UniProt P35439+Q00961); test: Electrophysiological assay at NMDA receptor subunits expressed in Xenopus oocytes, 1A/2C
# T1 construct: expressed in transfected cells; host or cells: Xenopus laevis oocytes (cRNA injection; clones from Dr. P. H. Seeburg)
# Protocol: (§1) Many of the properties of native NMDA receptors are seen in recombinant homomeric NR1 receptors. These properties are altered by the NR2 subunits. Recombinant NMDA receptors expressed in Xenopus oocytes have been studied by voltage-clamp recording, as has developmental and regional expression of the mRNAs encoding NMDA receptor subunits. Electrophysiological assays were utilized to characterize the actions of compounds at NMDA receptors expressed in Xenopus oocytes. The compounds were assayed at four subunit combinations of cloned rat NMDA receptors, corresponding to three putative NMDA receptor subtypes [Moriyoshi, et al. Nature 1991, 354, 31-37; Monyer et al, Science 1992, 256, 1217-1221; Kutsuwada et al, Nature 1992, 358, 36-41; Sugihara et al, Biochem. Biophys Res. Commun. 1992, 185, 826-832].
# (§2) Electrophysiological Assays at NMDA Receptor Subunits
# (§3) Preparation of RNA. cDNA clones encoding the NR1A, NR2A, NR2B, NR2C and NR2D rat NMDA receptor subtypes were provided by Dr. P. H. Seeburg (see, Moriyoshi et al., Nature (Lond.) 354:31-37 (1991); Kutsuwada et al., Nature (Lond.) 358:36-41 (1992) Monyer et al., Science (Washington, D.C.) 256:1217-1221 (1992); Ikeda et al., FEBS Lett. 313:34-38 (1992); Ishii et al., J. Biol. Chem. 268:2836-2843 (1993) for details of these clones or their mouse homologs). The clones were transformed into appropriate host bacteria and plasmid preparations were made with conventional DNA purification techniques. A sample of each clone was linearized by restriction enzyme digestion and cRNA was synthesized with T3 RNA polymerase. The cRNA was diluted to 400 ng/μl and stored in 1 μl aliquots at -80° C. until injection.
# (§4) The Xenopus oocyte expression system. Mature female Xenopus laevis were anaesthetized (20-40 min) using 0.15% 3-aminobenzoic acid ethyl ester (MS-222) and 2-4 ovarian lobes were surgically removed. Oocytes at developmental stages IV-VI (Dumont, J. N., J. Morphol. 136:153-180 (1972)), were dissected from the ovary still surrounded by enveloping ovarian tissues. Follicle-enclosed oocytes were micro-injected with 1:1 mixtures of cRNA:NR1A+NR2A, 2B, 2C or 2D; injecting ~2,5, or 20 ng of RNA encoding each receptor subunit. NR1A encoding cRNA was injected alone at ~20 ng. Oocytes were stored in Barth's medium containing (in mM):NaCl, 88; KCl, 1; CaCl2, 0.41; Ca(NO3)2, 0.33; MgSO4, 0.82 NaHCO3, 2.4; HEPES 5, pH 7.4, with 0.1 mg/ml gentamicin sulphate. While oocytes were still surrounded by enveloping ovarian tissues the Barth's medium was supplemented with 0.1% bovine serum. Oocytes were defolliculated 1-2 days following injections by treatment with collagenase (0.5 mg/ml Sigma Type I for 0.5-1 hr) (Miledi and Woodward, J. Physiol. (Lond.) 416:601-621 (1989)) and subsequently stored in serum-free medium.
# (§5) Electrical recordings were made using a conventional two-electrode voltage clamp (Dagan TEV-200) over periods ranging between 3-21 days following injection. (Woodward et al., Mol. Pharmacol. 41: 89-103 (1992)). Oocytes were placed in a 0.1 ml recording chamber continuously perfused (5-15 ml min^-1 ) with frog Ringer's solution containing (in mM):NaCl, 115; KCl, 2; CaCl2, 1.8; HEPES, 5; pH 7.4. Drugs were applied by bath perfusion. Using oocytes expressing different subunit combinations of NMDA receptor, NMDA currents were activated by co-application of glutamate (100 μm) and glycine (1-100 μm). Inhibitory potency of the novel antagonists was assessed on responses elicited by fixed concentrations of glutamate and glycine, by measuring reductions in current induced by progressively increasing concentrations of antagonist. Concentration-inhibition curves were fit with equation 1.
# (§6) I/Icontrol =1/(1+([antagonist]/10^-pIC50)^n) Eq. 1
# (§7) in which Icontrol is the current evoked by agonists alone, pIC50 =-log IC50, IC50 is the concentration of antagonist that produces half maximal inhibition, and n is the slope factor. (De Lean et al., Am. J. Physiol. 235:E97-102 (1978)). […]
# [2] = target: T2, NMDA receptor subunits 1A/2A (Rattus norvegicus, UniProt P35439+Q00959); test: Electrophysiological assay at NMDA receptor subunits expressed in Xenopus oocytes, 1A/2A; details: glutamate 100 μm and glycine 1-100 μm
# T2 construct: expressed in transfected cells; host or cells: Xenopus laevis oocytes (cRNA injection; clones from Dr. P. H. Seeburg)
# Protocol: as §1, §2, §3, §4, §5, §6, §7
# [3] = target: T3, NMDA receptor subunits 1A/2B (Rattus norvegicus, UniProt P35439+Q00960); test: Electrophysiological assay at NMDA receptor subunits expressed in Xenopus oocytes, 1A/2B
# T3 construct: expressed in transfected cells; host or cells: Xenopus laevis oocytes (cRNA injection; clones from Dr. P. H. Seeburg)
# Protocol: as §1, §2, §3, §4, §5, §6, §7
# [4] = Xenopus oocytes, glutamate 100 μm and glycine 1-100 μm, read-out: Subunits IC50, 1A/2C
# [5] = Xenopus oocytes, glutamate 100 μm and glycine 1-100 μm, read-out: Subunits IC50, 1A/2B
# T1 sequence (Q00961 20-1237, other chains not shown): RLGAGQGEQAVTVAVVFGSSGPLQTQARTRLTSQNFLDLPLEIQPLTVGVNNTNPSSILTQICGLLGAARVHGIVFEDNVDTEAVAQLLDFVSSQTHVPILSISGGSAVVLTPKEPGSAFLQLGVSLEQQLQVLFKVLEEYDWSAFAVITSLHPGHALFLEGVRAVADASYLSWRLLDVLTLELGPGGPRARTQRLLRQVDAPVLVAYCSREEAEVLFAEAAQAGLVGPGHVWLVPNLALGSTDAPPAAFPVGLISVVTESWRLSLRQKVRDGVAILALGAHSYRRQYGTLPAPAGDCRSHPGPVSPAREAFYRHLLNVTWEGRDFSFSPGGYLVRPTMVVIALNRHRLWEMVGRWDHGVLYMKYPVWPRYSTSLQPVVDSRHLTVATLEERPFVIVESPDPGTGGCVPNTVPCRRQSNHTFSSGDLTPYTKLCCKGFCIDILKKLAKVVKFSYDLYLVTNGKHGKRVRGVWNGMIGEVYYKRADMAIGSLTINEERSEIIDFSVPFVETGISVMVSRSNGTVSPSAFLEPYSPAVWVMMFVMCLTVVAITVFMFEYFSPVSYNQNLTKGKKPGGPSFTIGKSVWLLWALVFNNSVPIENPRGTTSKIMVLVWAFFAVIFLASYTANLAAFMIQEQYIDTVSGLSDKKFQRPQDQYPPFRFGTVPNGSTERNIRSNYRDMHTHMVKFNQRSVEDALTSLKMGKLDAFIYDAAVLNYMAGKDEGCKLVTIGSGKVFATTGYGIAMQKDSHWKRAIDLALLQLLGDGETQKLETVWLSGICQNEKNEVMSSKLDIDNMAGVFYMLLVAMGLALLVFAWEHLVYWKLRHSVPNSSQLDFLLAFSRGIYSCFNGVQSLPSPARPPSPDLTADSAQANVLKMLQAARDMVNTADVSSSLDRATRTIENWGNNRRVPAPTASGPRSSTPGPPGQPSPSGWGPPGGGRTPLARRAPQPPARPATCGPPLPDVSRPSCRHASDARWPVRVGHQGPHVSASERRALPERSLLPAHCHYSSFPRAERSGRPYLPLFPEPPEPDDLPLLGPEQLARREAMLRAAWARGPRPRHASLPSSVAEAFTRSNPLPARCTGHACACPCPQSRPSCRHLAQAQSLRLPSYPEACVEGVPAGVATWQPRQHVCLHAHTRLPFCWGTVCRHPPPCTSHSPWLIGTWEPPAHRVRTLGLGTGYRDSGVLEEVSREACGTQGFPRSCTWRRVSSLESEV
# T2 sequence (Q00959 20-1464 limits assumed, other chains not shown): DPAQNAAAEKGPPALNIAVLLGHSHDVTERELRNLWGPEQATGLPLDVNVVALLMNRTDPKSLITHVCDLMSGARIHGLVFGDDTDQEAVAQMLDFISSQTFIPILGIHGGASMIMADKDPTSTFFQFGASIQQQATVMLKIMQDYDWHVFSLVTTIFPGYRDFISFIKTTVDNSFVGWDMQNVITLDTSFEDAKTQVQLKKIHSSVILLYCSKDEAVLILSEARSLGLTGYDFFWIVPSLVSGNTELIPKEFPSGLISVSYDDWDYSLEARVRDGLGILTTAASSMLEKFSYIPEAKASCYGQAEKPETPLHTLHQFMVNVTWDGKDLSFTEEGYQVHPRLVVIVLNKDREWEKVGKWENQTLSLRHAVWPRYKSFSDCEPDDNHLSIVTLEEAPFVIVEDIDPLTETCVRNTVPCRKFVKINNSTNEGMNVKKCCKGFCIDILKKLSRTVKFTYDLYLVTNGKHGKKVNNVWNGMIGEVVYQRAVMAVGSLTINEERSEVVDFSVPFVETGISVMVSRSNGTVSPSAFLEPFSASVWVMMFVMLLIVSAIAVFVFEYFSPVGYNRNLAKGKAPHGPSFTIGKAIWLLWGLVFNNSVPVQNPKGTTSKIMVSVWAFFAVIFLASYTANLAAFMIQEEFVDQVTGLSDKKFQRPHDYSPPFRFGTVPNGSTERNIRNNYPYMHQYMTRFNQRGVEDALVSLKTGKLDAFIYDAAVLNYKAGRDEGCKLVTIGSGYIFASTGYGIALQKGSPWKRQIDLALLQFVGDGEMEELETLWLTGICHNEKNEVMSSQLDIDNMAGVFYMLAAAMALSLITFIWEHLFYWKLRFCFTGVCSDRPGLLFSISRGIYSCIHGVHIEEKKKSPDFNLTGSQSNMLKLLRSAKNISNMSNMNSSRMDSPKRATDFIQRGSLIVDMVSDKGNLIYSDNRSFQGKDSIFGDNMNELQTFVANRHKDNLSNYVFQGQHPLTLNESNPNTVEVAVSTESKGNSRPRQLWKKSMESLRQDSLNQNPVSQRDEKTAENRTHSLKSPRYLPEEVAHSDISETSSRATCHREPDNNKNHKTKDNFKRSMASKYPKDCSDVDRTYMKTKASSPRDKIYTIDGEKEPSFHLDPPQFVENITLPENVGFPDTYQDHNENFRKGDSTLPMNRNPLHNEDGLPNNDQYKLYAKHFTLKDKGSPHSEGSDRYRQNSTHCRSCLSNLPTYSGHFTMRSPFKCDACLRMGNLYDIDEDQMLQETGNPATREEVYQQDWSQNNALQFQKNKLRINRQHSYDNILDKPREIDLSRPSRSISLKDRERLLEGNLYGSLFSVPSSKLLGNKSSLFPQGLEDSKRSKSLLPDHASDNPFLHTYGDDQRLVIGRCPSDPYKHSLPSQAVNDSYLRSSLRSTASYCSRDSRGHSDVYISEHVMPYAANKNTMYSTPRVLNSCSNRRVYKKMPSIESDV
# T3 sequence (Q00960 27-1482, other chains not shown): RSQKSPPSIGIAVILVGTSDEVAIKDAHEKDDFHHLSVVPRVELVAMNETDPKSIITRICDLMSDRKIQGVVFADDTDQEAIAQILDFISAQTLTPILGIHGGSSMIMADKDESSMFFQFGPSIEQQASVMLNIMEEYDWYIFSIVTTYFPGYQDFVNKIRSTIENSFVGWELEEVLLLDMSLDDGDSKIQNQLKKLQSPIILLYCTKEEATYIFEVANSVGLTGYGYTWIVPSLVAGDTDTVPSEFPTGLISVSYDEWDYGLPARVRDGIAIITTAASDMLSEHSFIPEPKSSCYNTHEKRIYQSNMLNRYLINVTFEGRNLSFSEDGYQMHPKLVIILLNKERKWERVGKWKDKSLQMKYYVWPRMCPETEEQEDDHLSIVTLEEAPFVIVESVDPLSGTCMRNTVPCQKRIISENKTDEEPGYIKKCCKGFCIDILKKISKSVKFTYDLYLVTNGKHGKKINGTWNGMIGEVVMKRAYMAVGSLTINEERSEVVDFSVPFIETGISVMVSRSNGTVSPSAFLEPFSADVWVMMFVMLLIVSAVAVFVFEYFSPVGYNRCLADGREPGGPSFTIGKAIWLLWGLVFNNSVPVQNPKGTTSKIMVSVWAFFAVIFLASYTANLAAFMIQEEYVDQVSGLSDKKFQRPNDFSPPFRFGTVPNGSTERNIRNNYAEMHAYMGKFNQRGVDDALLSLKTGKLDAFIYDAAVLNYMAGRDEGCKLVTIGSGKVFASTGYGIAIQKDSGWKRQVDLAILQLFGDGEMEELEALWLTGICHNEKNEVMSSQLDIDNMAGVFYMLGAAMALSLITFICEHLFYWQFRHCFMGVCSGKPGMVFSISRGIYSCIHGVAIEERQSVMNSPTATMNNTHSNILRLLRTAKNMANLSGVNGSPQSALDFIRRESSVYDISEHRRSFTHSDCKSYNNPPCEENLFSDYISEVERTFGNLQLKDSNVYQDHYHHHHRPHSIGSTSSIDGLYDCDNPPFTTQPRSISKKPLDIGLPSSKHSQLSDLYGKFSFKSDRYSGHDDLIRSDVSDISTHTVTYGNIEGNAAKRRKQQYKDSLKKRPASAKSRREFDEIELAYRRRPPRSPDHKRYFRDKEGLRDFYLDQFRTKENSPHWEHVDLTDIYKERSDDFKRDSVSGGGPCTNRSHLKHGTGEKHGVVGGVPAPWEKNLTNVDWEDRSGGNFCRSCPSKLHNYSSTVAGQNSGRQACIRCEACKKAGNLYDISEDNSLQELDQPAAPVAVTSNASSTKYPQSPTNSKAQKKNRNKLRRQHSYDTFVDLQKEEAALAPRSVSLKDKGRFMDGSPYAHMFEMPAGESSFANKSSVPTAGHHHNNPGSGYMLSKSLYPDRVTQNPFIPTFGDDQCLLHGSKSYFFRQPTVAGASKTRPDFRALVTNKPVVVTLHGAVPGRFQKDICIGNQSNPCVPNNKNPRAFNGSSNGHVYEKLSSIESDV
Compound,"IC50 [1, 4]",IC50 [2],"IC50 [3, 5]",IC50 [1],IC50 [3]
"OC(CCc1ccccc1)CN1CCC(Cc2ccccc2)CC1 (stereo not drawn) [Ex. 4, 4-Benzyl-1-[(2-hydroxy-4-phenyl)butyl]piperidine]",> 100 µM,> 100 µM,9 µM,–,–
"c1ccc(OCCCN2CCC(c3ccccc3)CC2)cc1 [Ex. 7, 1-(3-Phenoxypropyl)-4-phenylpiperidine]",> 100 µM,> 100 µM,10 µM,–,–
"c1ccc(OCCCCN2CCC(c3ccccc3)CC2)cc1 [Ex. 9, 1-(4-Phenoxybutyl)-4-phenylpiperidine]",> 100 µM,> 100 µM,10 µM,–,–
"Clc1ccc(OCCN2CCC(Cc3ccccc3)CC2)cc1 [Ex. 11, 4-Benzyl-1-(2-(4-chlorophenoxy)ethyl)piperidine hydrochloride]",> 100 µM,–,10 µM,–,–
"O=[N+]([O-])c1ccc(OCCN2CCC(Cc3ccccc3)CC2)cc1 [Ex. 12, 4-Benzyl-1-(2-(4-nitrophenoxy)ethyl)piperidine hydrobromide]",> 100 µM,–,6 µM,–,–
"N#Cc1ccc(OCCN2CCC(Cc3ccccc3)CC2)cc1 [Ex. 14, 4-Benzyl-1-(2-(4-cyanophenoxy)ethyl)piperidine]",> 100 µM,–,3 µM,–,–
"CCOC(=O)Cc1cccc(OCCN2CCC(Cc3ccccc3)CC2)c1 [Ex. 17, 4-Benzyl-1-(2-(3-(ethoxycarbonylmethyl)phenoxy)ethyl)piperidine]",> 100 µM,–,3 µM,–,–
"NNC(=O)Cc1cccc(OCCN2CCC(Cc3ccccc3)CC2)c1 [Ex. 20, 4-Benzyl-1-(2-(3-(hydrazinocarbonylmethyl)phenoxy)ethyl)piperidine]",> 100 µM,5.5 µM,0.7 µM,–,–
"CC(COc1ccccc1)N1CCC(Cc2ccccc2)CC1 (stereo not drawn) [Ex. 21, 4-Benzyl-1-(1-methyl-2-phenoxyethyl)piperidine hydrobromide]",> 100 µM,45 µM,2.5 µM,–,–
"Clc1ccc(CC2CCN(CCOc3ccc(Cl)cc3)CC2)cc1 [Ex. 26, 4-(4-Chlorobenzyl)-1-(2-(4-chlorophenoxyethyl)piperidine hydrochloride]",> 100 µM,–,12 µM,–,–
"OCCc1cccc(OCCN2CCC(Cc3ccc(Cl)cc3)CC2)c1 [Ex. 29, 4-(4-Chlorobenzyl)-1-(2-(3-(2-hydroxyethyl)phenoxy)ethyl)piperidine]",> 100 µM,–,0.5 µM,–,–
"Fc1ccc(CC2CCN(CCOc3ccc(Cl)cc3)CC2)cc1 [Ex. 34, 4-(4-Fluorobenzyl)-1-(2-(4-chlorophenoxy)ethyl)piperidine hydrochloride]",> 100 µM,–,15 µM,–,–
"COc1ccc(CC2CCN(CCOc3ccc(F)cc3)CC2)cc1 [Ex. 35, 1-(2-(4-Fluorophenoxy)ethyl)-4-(4-methoxybenzyl)piperidine hydrochloride]",> 100 µM,–,4 µM,–,–
"O=[N+]([O-])c1ccc(CC2CCN(CCOc3ccc(F)cc3)CC2)cc1 [Ex. 36, 1-(2-(4-Fluorophenoxy)ethyl)-4-(4-nitrobenzyl)piperidine hydrobromide]",> 100 µM,40 µM,22 µM,–,–
"O=[N+]([O-])c1ccc(CC2CCN(CCCOc3ccccc3)CC2)cc1 [Ex. 37, 4-(4-Nitrobenzyl)-1-(3-phenoxypropyl)piperidine hydrobromide]",> 100 µM,14 µM,10 µM,–,–
"Fc1ccc(NC2CCN(CCOc3ccc(F)cc3)CC2)cc1 [Ex. 39, 1-(2-(4-Fluorophenoxy)ethyl)-4-(N-(4-fluoroanilino)piperidine hydrochloride]",> 100 µM,–,60 µM,–,–

Compound,"IC50 [1, 4]",IC50 [2],"IC50 [3, 5]",IC50 [1],IC50 [3]
"OC1CN(CCCOc2ccccc2)CCC1c1cccc(C(F)(F)F)c1 (stereo not drawn) [Ex. 46, 3-Hydroxy-1-(3-phenoxypropyl)-4-(3-trifluoromethylphenyl)piperidine hydrochloride]",> 100 µM,–,1.5 µM,–,–
"OC1(Cc2ccccc2)CCN(CCCOc2ccccc2)CC1 [Ex. 48, 4-Benzyl-4-hydroxy-1-(3-phenoxypropyl)piperidine]",> 100 µM,–,22 µM,–,–
"ClCCN1CCC(Cc2ccccc2)CC1 [Ex. 49, 4-Benzyl-1-(2-chloroethyl)piperidine]",–,–,–,> 100 µM,5 µM
"O=[N+]([O-])c1ccccc1OCCN1CCC(Cc2ccccc2)CC1 [Ex. 60, 4-Benzyl-1-[2-(2-nitrophenoxy)ethyl]piperidine]",> 100 µM,–,6 µM,–,–
c1ccc(CC2CCN(CCOc3ncnc4ccccc34)CC2)cc1 [Ex. 66],> 100 µM,–,10 µM,–,–
"COc1ccccc1OCCN1CCC(Cc2ccccc2)CC1 [Ex. 68, 4-Benzyl-1-[2-(2-methoxyphenoxy)ethyl]piperidine]",> 100 µM,–,5 µM,–,–
"CC(=O)Nc1ccc(OCCN2CCC(Cc3ccccc3)CC2)cc1NC(C)=O [Ex. 71A, 4-Benzyl-1-[2-(3,4-bisacetamidophenoxy)ethyl]piperidine]",> 100 µM,–,20 µM,–,–
"Cc1nc2cc(OCCN3CCC(Cc4ccccc4)CC3)ccc2[nH]1 [Ex. 71C, 4-Benzyl-1-[2-(2-methylbenzimidazol-5-oxy)ethyl]piperidine]",> 100 µM,–,8 µM,–,–
"c1ccc(CCCN2CCC(Cc3ccccc3)CC2)cc1 [Ex. 84, 4-Benzyl-1-(3-phenylpropyl)piperidine hydrochloride]",> 100 µM,–,2.2 µM,–,–
"OC1(Cc2ccccc2)CCN(CCCc2ccccc2)CC1 [Ex. 91, 4-Benzyl-4-hydroxy-1-(3-phenylpropyl)piperidine hydrochloride]",> 100 µM,–,22 µM,–,–
"Fc1ccc(OCCN2CCC(Cc3ccc4c(c3)CCCC4)CC2)cc1 [Ex. 140, 1-(2-(4-Fluorophenoxy)ethyl)-4-((5,6,7,8-tetrahydro-2-naphthyl)methyl)piperidine hydrochloride]",–,80 µM,28 µM,–,–
"Oc1ccc(OCCN2CCC(Cc3ccc4ccccc4c3)CC2)cc1 [Ex. 141, 1-(2-(4-Hydroxyphenoxy)ethyl)-4-((2-naphthyl)methyl)piperidine hydrochloride]",90 µM,–,0.1 µM,–,–
"Oc1ccccc1OCCN1CCC(Cc2ccc(F)cc2)CC1 [Ex. 158, 4-(4-Fluorobenzyl)-1-[2-(2-hydroxyphenoxy)ethyl]piperidine hydrochloride]",190 µM,–,0.3 µM,–,–
"Oc1ccc(OCCN2CCC(O)(Cc3ccccc3)CC2)cc1 [Ex. 164, 4-Benzyl-4-hydroxy-1-[2-(4-hydroxyphenoxy)ethyl]piperidine hydrochloride]",> 300 µM,–,0.12 µM,–,–
"Cn1c(=O)[nH]c2ccc(OCCN3CCC(Cc4ccccc4)CC3)cc21 [Ex. 193, 4-Benzyl-1-(2-(3-methyl-2-oxobenzamidazol-5-oxy)ethyl)piperidine]",> 300 µM,–,0.2 µM,–,–
